The results in this text go back to patent US20150148311A1, “NON-SYSTEMIC TGR5 AGONISTS” (Ardelyx, Inc., priority 2011, published 2015).

Structures are written as SMILES. Where only a bound is given, the exact number is not on record here.

Series [1] is described as follows: Compound plasma concentration, LC-MS/MS, 8 h post dose. In kind it is in vivo. The settings on record: 30 mg/kg; for Number of Mice with Plasma Concentration < LLOQ: mice below LLOQ / mice in group; for concentration at 8 h: male, C57BL/6, mouse, mice, plasma, read-out: Mean Example Plasma Concentration. As for the experimental part:
(§1) Eight hours later, each mouse was heavily anesthetized with isoflurane, the peritoneal cavity was opened and the gallbladder, with its entire contents, was carefully excised and weighed. Blood was collected from the left ventricle of the heart and processed to plasma in EDTA-coated tubes containing aprotinin and DPPIV inhibitor for measurement of total GLP-1 (K150FCC; Meso Scales Discovery, Gaithersburg Md.).
Plasma samples were treated with acetonitrile containing an internal standard, precipitated proteins removed by centrifugation. Supernatants were analyzed by LC-MS/MS and compound concentrations were determined by interpolated from a standard curve prepared in plasma.

The nature of series [2]: Compound concentration in gall bladder, LC-MS/MS, 8 h post dose. In kind it is in vivo. Particulars: 30 mg/kg; for Number of Mice with Gallbladder Concentration < LLOQ: mice below LLOQ / mice in group; for concentration at 8 h: male, C57BL/6, mouse, with contents, mice, gallbladder homogenate, read-out: Mean Example Gallbladder Concentration. As for the experimental part: as §1
Compound concentrations in the gall bladder were determined as follows: each mouse was heavily anesthetized with isoflurane, the peritoneal cavity was opened and the gallbladder, with its entire contents, was carefully excised. After harvest, gall bladders were homogenized in 100 μL water using a micro-homogenizer. Samples of homogenate were diluted 1:5 in water and precipitated with three volumes of neat acetonitrile. After centrifugation, supernatants were analyzed by LC-MS/MS. The level of test compound present in gall bladder samples was interpolated from a standard curve for each individual compound prepared in a matrix of gallbladder homogenate from vehicle treated animals.

Series [3] has as its target T1, human TGR5 (Homo sapiens, UniProt Q8TDU6).
T1 construct: expressed in transfected cells
T1 sequence (Q8TDU6 1-330): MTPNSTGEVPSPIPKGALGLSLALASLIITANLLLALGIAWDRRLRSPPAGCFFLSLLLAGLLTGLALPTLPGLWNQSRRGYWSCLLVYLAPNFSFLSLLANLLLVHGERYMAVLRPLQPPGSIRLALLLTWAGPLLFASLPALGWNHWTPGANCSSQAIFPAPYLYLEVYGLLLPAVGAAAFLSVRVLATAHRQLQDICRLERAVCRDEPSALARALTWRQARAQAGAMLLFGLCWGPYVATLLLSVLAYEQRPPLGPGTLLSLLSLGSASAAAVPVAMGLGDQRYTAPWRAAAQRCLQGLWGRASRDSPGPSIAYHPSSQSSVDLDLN
Briefly: Cell-based TGR5 assay, HEK293 cells stably expressing human TGR5, cAMP by HTRF. Particulars: HEK293 cells stably expressing human TGR5, 30 min at 37 C, 0.05 nM to 10 μM, read-out: pEC50 Human TGR5 (converted). The procedure, abridged: (§2)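 cAMP HTRF read-out, converted to concentration via standard curve, after a 30 min, 37 °C compound exposure in HBSS with 10 mM HEPES pH 7.4 and 0.5 mM IBMX, compounds serially diluted 3-fold from 10 mM DMSO stock then 100-fold. Cells: stable human TGR5 HEK293, or NCI-H716 expressing TGR5 endogenously.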
Background: Time-resolved FRET reads energy transfer from a long-lived donor to a nearby acceptor.

Series [4] addresses T2, endogenously expressed TGR5 in NCI H716 (Homo sapiens, UniProt Q8TDU6).
T2 construct: human caecum carcinoma cell line NCI-H716 which endogenously expresses human TGR5; endogenous in cells; host or cells: NCI-H716
T2 sequence (Q8TDU6 1-330): T1 sequence (Q8TDU6 1-330)
As to the kind of experiment: Cell-based TGR5 assay, NCI-H716 cells endogenously expressing human TGR5, cAMP by HTRF. The settings on record: 30 min at 37 C, 22 nM to 50 μM, read-out: pEC50 endogenously expressed TGR5 in NCI H716 (converted). The procedure, abridged:
as §2

On to `CN(C[C@H](O)[C@@H](O)[C@@H](O)[C@H](O)CO)C(=O)CCCCc1cc(Cl)c(CN2CSC[C@H]2C(=O)N2CCN(C3CC3)c3ccccc32)cc1Cl` [Example 239], for which, in series [1], the “Number of Mice with Plasma Concentration < LLOQ” value is 6/8 and the concentration at 8 h came out at 2 ng/mL. In addition, in series [2], the “Number of Mice with Gallbladder Concentration < LLOQ” value was 8/8 and the concentration at 8 h is under 3 nM.

As to `CN(C[C@H](O)[C@@H](O)[C@@H](O)[C@H](O)CO)C(=O)CCc1cc(Cl)c(CN2CSC[C@H]2C(=O)N2CCN(C3CC3)c3ccccc32)cc1Cl` [Example 98, 3-(2,5-dichloro-4-(((R)-4-(4-cyclopropyl-1,2,3,4-tetrahydroquinoxaline-1-carbonyl)thiazolidin-3-yl)methyl)phenyl)-N-methyl-N-((2S,3R,4S,5R)-2,3,4,5,6-pentahydroxyhexyl)propanamide], the “Number of Mice with Plasma Concentration < LLOQ” value in series [1] is reported as 4/8. Besides, in series [2], the “Number of Mice with Gallbladder Concentration < LLOQ” value was 0/8.

For `CN(C[C@H](O)[C@@H](O)[C@H](O)[C@H](O)CO)C(=O)CCc1cc(Cl)c(CN2CSC[C@H]2C(=O)N2CCN(C3CC3)c3ccccc32)cc1Cl` [Example 237], the “Number of Mice with Plasma Concentration < LLOQ” value in series [1] was 7/8. Moreover, in series [2], the “Number of Mice with Gallbladder Concentration < LLOQ” value is listed as 1/8.

Take `CN(C[C@@H](O)[C@H](O)[C@@H](O)[C@@H](O)CO)C(=O)NCCCCc1cc(Cl)c(CN2CSC[C@H]2C(=O)N2CCN(C3CC3)c3ccccc32)cc1Cl` [Example 208]: in series [1], the “Number of Mice with Plasma Concentration < LLOQ” value was 7/7 and the concentration at 8 h was under 0.5 ng/mL. Also, in series [2], the “Number of Mice with Gallbladder Concentration < LLOQ” value is given as 0/7.

On to `O=C(CCc1cc(Cl)c(CN2CSC[C@H]2C(=O)N2CCN(C3CC3)c3ccccc32)cc1Cl)NC[C@H](O)[C@@H](O)C(O)[C@H](O)CO` (stereo in doubt) [Example 97, 3-(2,5-dichloro-4-(((R)-4-(4-cyclopropyl-1,2,3,4-tetrahydroquinoxaline-1-carbonyl)thiazolidin-3-yl)methyl)phenyl)-N-((2S,3R,4R,5R)-2,3,4,5,6-pentahydroxyhexyl)propanamide], for which the “Number of Mice with Plasma Concentration < LLOQ” value in series [1] is on record as 7/8. Moreover, in series [2], the “Number of Mice with Gallbladder Concentration < LLOQ” value was 0/8 and the concentration at 8 h was found to be 520 nM.

In the case of `O=C(NCCCCc1cc(Cl)c(CN2CSC[C@H]2C(=O)N2CCN(C3CC3)c3ccccc32)cc1Cl)NC[C@@H](O)[C@H](O)[C@@H](O)[C@@H](O)CO` [Example 177, 1-(4-(2,5-dichloro-4-(((R)-4-(4-cyclopropyl-1,2,3,4-tetrahydroquinoxaline-1-carbonyl)thiazolidin-3-yl)methyl)phenyl)butyl)-3-((2R,3S,4S,5S)-2,3,4,5,6-pentahydroxyhexyl)urea], in series [2], the concentration at 8 h was 100 nM.

Regarding `O=C(O)CN(CCCCCc1cc(Cl)c(CN2CSC[C@H]2C(=O)N2CCN(C3CC3)c3ccccc32)cc1Cl)CC(=O)O` [Example 276], the concentration at 8 h in series [1] stood at 7.6 ng/mL.

`O=C([C@@H]1SCCN1Cc1cc(Cl)ccc1C(F)(F)F)N1CCN(C2CC2)c2ccccc21` [Example 268]: the EC50 in series [3] was under 0.1 µM; in series [4] it was 0.126 to 1 µM.

Take `CN(C[C@H](O)[C@@H](O)[C@H](O)[C@H](O)CO)C(=O)NCCCc1ccc(Cl)c(CN2CSC[C@H]2C(=O)N2CCN(C3CC3)c3ccccc32)c1` [Example 217]: the EC50 in series [3] was 0.126 to 1 µM; in series [4] it was 1.26 to 50.1 µM.

On to `O=C(NC[C@H](O)[C@@H](O)[C@H](O)[C@H](O)CO)c1ccc(OCc2cc(Cl)c(CN3CSC[C@H]3C(=O)N3CCN(C4CC4)c4ccccc43)cc2Cl)nc1` [Example 285], for which the “Number of Mice with Plasma Concentration < LLOQ” value in series [1] was 2/8. Further, the “Number of Mice with Gallbladder Concentration < LLOQ” value in series [2] was 0/8.

In the case of `CC(OC1(C(=O)N2CCN(C3CC3)c3ccccc32)CC1)c1cc(Cl)ccc1Cl` (stereo not drawn) [Example 94, (4-cyclopropyl-3,4-dihydroquinoxalin-1(2H)-yl)(1-(1-(2,5-dichlorophenyl)ethoxy)cyclopropyl)methanone], the EC50 in series [3] and in series [4] was 1.26 to 50.1 µM throughout.
